{"source": "paper PMC9794991", "about": "“Evaluation of analogs of mutacin 1140 in systemic and cutaneous methicillin-resistant Staphylococcus aureus infection models in mice” (Frontiers in Microbiology, 2022)", "key": {"[1]": {"system": "S. aureus ATCC 33591 (MRSA)", "assay": "MIC in broth (CLSI M07-A8) against MRSA 33591", "assay_type": "cell-based, Staphylococcus aureus", "method": "(§1) Preparation of the antimicrobial agent and bacterial inoculum for MICs was performed by following the method described by the Clinical and Laboratory Standards Institute (CLSI; M07-A8; [CLSI, 2018]) and as previously reported by our group ([Chen et al., 2013]; [Escano et al., 2017]; [Geng and Smith, 2018]). […] A single colony from an overnight culture of S. aureus was inoculated in 10 ml of THyex broth (30 g/L Todd Hewitt broth, 3 g/L yeast extract). The inoculum was placed in a shaking incubator at 37°C and 280 rpm and grown to an OD600 of 0.6–0.8. The culture broth was then diluted to an OD600 of 0.132, after which a 20-fold dilution in fresh broth was performed resulting in a ~5 × 10^5 CFU/ml cell density. Mu1140 and Mu1140 analogs were solubilized in dimethyl sulfoxide (DMSO) at a concentration of 1 mg/ml as the stock solution. […] The same volume of DMSO was added to all test samples including the no-drug control. The cultures were placed in a shaking incubator at 37°C and 200 rpm (Stuart orbital incubator SI500). A 100 μl sample from each culture was taken at each time point of 0, 0.25, 0.5, 0.75, 1, 1.5, 2, 4, 8, 18, and 24 h and was serially diluted in fresh medium before being spread on THyex agar plates (30 g/L Todd Hewitt broth, 3 g/L yeast extract, 15 g/L agar) for determining the CFUs. The plates were allowed to grow for 24 h at 37°C before the colony-forming units (CFUs) were counted. The CFU/ml for each time-point at each drug concentration was determined using at least two independent cultures. Plates having 30 to 300 colonies were used for CFU measurements."}, "[2]": {"system": "S. aureus ATCC33591 skin infection", "assay": "Subcutaneous treatment of subcutaneous MRSA skin infection (Trial 2)", "assay_type": "in vivo, BALB/c mice", "details": "three times per day for 3 days from 48 h post-infection, n = 8", "method": "Trial 2: In this trial, the infection model was performed following methods that were previously reported ([Guo et al., 2013]; [Dejani et al., 2016]). […] Mice were acclimatized to the environment for at least 7 days before initiating experiments. After shaving the hair on the dorsum of the mice, a 50 μl suspension of S. aureus ATCC33591 in PBS, containing 1.5 × 10^7 CFUs, was injected subq (D0). As noted in trial 1, no bleeding was observed during all injections. […] Mice were separated into four groups (n = 8 for treatment and no-drug vehicle control groups; D2). […] The last group received the no-drug vehicle control (sterile water with 20% DMSO). Treatments were administered three times per day to the mice through a 3-point subq injection around the scab with the needle pointed toward the center of the wound. Weights of mice were measured at least once per day, while behavior and the wound sites were monitored multiple times per day. Mice were sacrificed approximately 24-h after the last subq treatment (D6). Dermal tissues at the infected sites were sampled and homogenized in sterile PBS. The homogenates were serially diluted and plated on THyex agar for determining CFUs."}, "[3]": {"system": "S. aureus ATCC TCH1516 skin infection", "assay": "Topical treatment of incision MRSA skin infection (Trial 1)", "assay_type": "in vivo, BALB/c mice", "details": "for Group mean (±SE) of log CFU/infection site: 10 mg/kg/day topical, twice daily for 6 days from 24 h post-infection, n = 6, vehicle control 5.33 ± 0.64", "method": "Trial 1: In this trial, the infection model was performed following methods that were previously reported ([Kugelberg et al., 2005]; [Guo et al., 2013]; [Simonetti et al., 2020]). […] Seven groups (n = 6 mice/group) were acclimatized to the environment for at least 7 days before the start of the experiment. Once the hair on the dorsum of the mice was shaved, a 1 cm incision was made and a 50 μl suspension of S. aureus ATCC TCH1516 in PBS, containing 2 × 10^7 CFUs, was applied directly to the incision. Mice were housed individually until inoculum dried at the incision site (Day (D) 0). Approximately 24 h later (D1), treatment was applied topically twice daily for 6 days. […] Another group received the no-drug vehicle control (0.6% noble agar in citrate buffer). Weights of mice were measured at least once per day, while behavior and the wounds were monitored multiple times per day. Mice were sacrificed 1 day after the last topical treatment (D7). Dermal tissues at the infected sites were sampled and homogenized in sterile PBS. The homogenates were serially diluted and plated on THyex agar for determining CFUs."}, "[4]": {"system": "MRSA (S. aureus ATCC 33591) systemic infection", "assay": "In vivo MRSA systemic infection model (survival)", "details": "single 10 mg/kg i.v. dose 1 h post-infection", "procedure": "The vehicle (saline with 15% DMSO) served as the no-drug control group of mice. Each mouse was monitored every 4 h during the first 2 days post-infection (day 0 to day 2), and every 8 h from day 2 to day 5."}, "[5]": {"system": "S. aureus ATCC33591 skin infection", "assay": "Intravenous treatment of an in vivo MRSA acute skin infection", "set-up": "species or system BALB/c mice", "method": "Mice were acclimatized to the environment for at least 7 days before initiating experiments. After shaving the hair on the dorsum of the mice, a 50 μl suspension of S. aureus ATCC33591 in PBS, containing 1.5 × 10^7 CFUs, was injected subcutaneously (subq). No bleeding was observed during all injections. […] Mice were separated into four groups (n = 8 for the treatment groups and n = 6 for the control). […] The last group received the no-drug vehicle control (PBS with 5% DMSO). Weights of mice were measured at least once per day, while behavior and the wounds were monitored multiple times per day. Mice were sacrificed approximately 24-h after the last i.v. treatment (Day 6; D6). Dermal tissues at the infected sites were sampled and homogenized in sterile PBS. The homogenates were serially diluted and plated on THyex agar for determining CFUs."}, "clinical MRSA isolates": {"system": "clinical MRSA isolates", "assay": "MIC in broth against a panel of clinical MRSA isolates", "assay_type": "cell-based", "details": "Staphylococcus aureus"}, "S. aureus ATCC 33591": {"system": "S. aureus ATCC 33591", "assay": "Time-kill study (kill kinetics)", "assay_type": "cell-based, Staphylococcus aureus", "method": "as §1"}, "[6]": {"details": "Staphylococcus aureus, MRSA 33591, in broth, read-out: MIC"}, "[7]": {"details": "10 mg/kg/day i.v. for 5 days, n = 8"}}, "note": "Several values for one entry are separate records, joined by “and”; a condition that tells them apart may be missing. Equal values may be shown once. Where a name gives a salt, the structure may show the parent alone. Read-outs that look alike come from different tables or passages of the source.", "data": [{"molecule": "CC(=O)NC[C@H]1CN(c2ccc(N3CCOCC3)c(F)c2)C(=O)O1", "note": "[Linezolid, linezolid]", "values": [{"measurement": "MIC", "setting": "[1]; [6]", "result": 1, "unit": "mg/L"}, {"measurement": "log reduction in CFUs (mean difference to vehicle control)", "setting": "[2]; 75 mg/kg/day subq", "result": 0.6, "unit": "log"}, {"measurement": "log reduction in CFUs (mean difference to vehicle control)", "setting": "[2]; 75 mg/kg/day subq, listed as linezolid", "result": 0.60, "unit": "log"}]}, {"molecule": "mutacin 1140 [Mu1140]", "values": [{"measurement": "Group mean (±SE) of log CFU/infection site", "setting": "[3]", "result": "5.23 log CFU/infection site and 5.23 ± 0.93 log CFU/infection site"}, {"measurement": "survival at 12 h post-infection", "setting": "[4]", "result": 100, "unit": "%"}, {"measurement": "survival at 24 h post-infection", "setting": "[4]", "result": 83.3, "unit": "%"}, {"measurement": "effect on bacterial load at the skin lesion site", "setting": "[5]; [7]", "result": "statistically significant reduction in CFUs"}, {"measurement": "mean difference in bacteria load to the vehicle control group", "setting": "[5]; 10 mg/kg/day i.v. for 5 days, Cohen's d = 1.27, p = 0.0265", "result": 0.61, "unit": "log CFU"}, {"measurement": "bacteria count at the lesion", "setting": "[5]; 10 mg/kg/day i.v. twice daily for 5 days from 48 h post-infection, n = 8, vehicle control 7.82", "result": 7.21, "unit": "log CFU"}, {"measurement": "MIC", "setting": "[1]; MRSA 33591, in broth", "result": 0.5, "unit": "mg/L"}, {"measurement": "MIC compared to fusidic acid and linezolid", "setting": "[1]; S. aureus 33591", "result": "two-fold lower"}, {"measurement": "MIC compared to vancomycin", "setting": "[1]; S. aureus 33591", "result": "four-fold lower"}, {"measurement": "log reduction in CFUs (mean difference to vehicle control)", "setting": "[2]; 25 mg/kg/day subq", "result": 0.78, "unit": "log"}]}, {"molecule": "daptomycin", "values": [{"measurement": "effect on bacterial load at the lesion site", "setting": "[5]; 25 mg/kg i.v. dose, same experimental conditions, data not shown", "result": "no impact on the bacterial load"}]}, {"molecule": "CC(=O)O[C@H]1C[C@@]2(C)[C@@H](C[C@@H](O)[C@H]3[C@@]4(C)CC[C@@H](O)[C@@H](C)[C@@H]4CC[C@@]32C)/C1=C(\\CCC=C(C)C)C(=O)O", "note": "[Fusidic acid]", "values": [{"measurement": "log reduction in bacterial load compared to the vehicle control group", "setting": "[3]; 10 mg/kg/day topical for 6 days, not statistically significant", "result": 2.17, "unit": "log"}, {"measurement": "Group mean (±SE) of log CFU/infection site", "setting": "[3]", "result": "3.16 ± 0.50", "unit": "log CFU/infection site"}, {"measurement": "Group mean (±SE) of log CFU/infection site", "setting": "[3]; listed as fusidic acid", "result": 3.16, "unit": "log CFU/infection site"}, {"measurement": "MIC", "setting": "[1]; [6]", "result": 1, "unit": "mg/L"}]}, {"molecule": "CN[C@H](CC(C)C)C(=O)N[C@H]1C(=O)N[C@@H](CC(N)=O)C(=O)N[C@H]2C(=O)N[C@H]3C(=O)N[C@H](C(=O)N[C@H](C(=O)O)c4cc(O)cc(O)c4-c4cc3ccc4O)[C@H](O)c3ccc(c(Cl)c3)Oc3cc2cc(c3O[C@@H]2O[C@H](CO)[C@@H](O)[C@H](O)[C@H]2O[C@H]2C[C@](C)(N)[C@H](O)[C@H](C)O2)Oc2ccc(cc2Cl)[C@H]1O", "note": "[Vancomycin, Vancomycin hydrochloride]", "values": [{"measurement": "MIC", "setting": "clinical MRSA isolates; MRSA / USA300, strain USA300, in broth", "result": 2, "unit": "mg/L"}, {"measurement": "MIC", "setting": "clinical MRSA isolates; MRSA, strain 602, in broth", "result": 2, "unit": "mg/L"}, {"measurement": "MIC", "setting": "clinical MRSA isolates; MRSA, strain 611, in broth", "result": 2, "unit": "mg/L"}, {"measurement": "MIC", "setting": "clinical MRSA isolates; MRSA, strain 616, in broth", "result": 2, "unit": "mg/L"}, {"measurement": "MIC", "setting": "clinical MRSA isolates; MRSA, strain 631, in broth", "result": 2, "unit": "mg/L"}, {"measurement": "MIC", "setting": "clinical MRSA isolates; MRSA, strain 640, in broth", "result": 1, "unit": "mg/L"}, {"measurement": "MIC", "setting": "clinical MRSA isolates; MRSA, strain 641, in broth", "result": 2, "unit": "mg/L"}, {"measurement": "MIC", "setting": "clinical MRSA isolates; MRSA, strain 644, in broth", "result": 2, "unit": "mg/L"}, {"measurement": "MIC", "setting": "clinical MRSA isolates; MRSA, strain 30476, in broth", "result": 2, "unit": "mg/L"}, {"measurement": "MIC", "setting": "clinical MRSA isolates; MRSA, strain 31225, in broth", "result": 1, "unit": "mg/L"}, {"measurement": "MIC", "setting": "clinical MRSA isolates; MRSA, strain 31258, in broth", "result": 1, "unit": "mg/L"}, {"measurement": "MIC", "setting": "clinical MRSA isolates; MRSA, strain CA347, in broth", "result": 2, "unit": "mg/L"}, {"measurement": "MIC", "setting": "clinical MRSA isolates; MRSA, strain CA513, in broth", "result": 4, "unit": "mg/L"}, {"measurement": "MIC", "setting": "clinical MRSA isolates; MRSA, strain CA-409, in broth", "result": 2, "unit": "mg/L"}, {"measurement": "MIC", "setting": "clinical MRSA isolates; MRSA, strain CO-34, in broth", "result": 2, "unit": "mg/L"}, {"measurement": "MIC", "setting": "clinical MRSA isolates; MRSA, strain GA442, in broth", "result": 4, "unit": "mg/L"}, {"measurement": "MIC", "setting": "clinical MRSA isolates; MRSA, strain HFH30364, in broth", "result": 2, "unit": "mg/L"}, {"measurement": "MIC", "setting": "clinical MRSA isolates; MRSA, strain HFH30522, in broth", "result": 1, "unit": "mg/L"}, {"measurement": "MIC", "setting": "clinical MRSA isolates; MRSA, strain N315, in broth", "result": 2, "unit": "mg/L"}, {"measurement": "MIC", "setting": "clinical MRSA isolates; MRSA, strain SAEH06, in broth", "result": 0.5, "unit": "mg/L"}, {"measurement": "survival at 12 h post-infection", "setting": "[4]", "result": 75.0, "unit": "%"}, {"measurement": "survival at 24 h post-infection", "setting": "[4]", "result": 50, "unit": "%"}, {"measurement": "effect on bacterial load at the skin lesion site", "setting": "[5]; [7]", "result": "did not have any significant effect on the bacterial load"}, {"measurement": "effect on bacterial load at the skin lesion site", "setting": "[5]; 10 mg/kg/day i.v. for 5 days, n = 8, listed as vancomycin", "result": "did not show any statistical significance to vehicle control"}, {"measurement": "MIC", "setting": "[1]; Staphylococcus aureus", "result": 2, "unit": "mg/L"}, {"measurement": "reduction in viable cells", "setting": "S. aureus ATCC 33591; 0.5× MIC", "result": "negligible differences between the vehicle control and the treatment groups"}, {"measurement": "time needed for a 2-log reduction in CFUs", "setting": "S. aureus ATCC 33591; 1× and 2× MIC", "result": 8, "unit": "hours"}, {"measurement": "time until viable cell counts dropped below the detection limit", "setting": "S. aureus ATCC 33591; 2× MIC", "result": "more than 8 h"}, {"measurement": "viable cells at 18 and 24 h post-administration", "setting": "S. aureus ATCC 33591; 2× MIC", "result": "no viable cells"}]}]}
